{
  "source": "paper PMC3255569",
  "about": "(Tuberculosis (Edinburgh, Scotland), 2009)",
  "key": {"[1]": {"test_system": "M. tuberculosis H37Rv", "type": "cell-based", "settings": "Mycobacterium tuberculosis; for MIC: read-out: approximate MIC of control drug"}, "[2]": {"test_system": "M. tuberculosis H37Rv", "settings": "cited from earlier work"}, "[3]": {"test_system": "M. tuberculosis H37Rv", "test": "M. tuberculosis H37Rv single-dose primary screen", "type": "cell-based, Mycobacterium tuberculosis", "settings": "10 μg/mL"}},
  "note": "Structures can show the parent of a compound that is named as a salt.",
  "data": [
    {"smiles": "NCC[C@H](O)C(=O)N[C@@H]1C[C@H](N)[C@@H](O[C@H]2O[C@H](CN)[C@@H](O)[C@H](O)[C@H]2O)[C@H](O)[C@H]1O[C@H]1O[C@H](CO)[C@@H](O)[C@H](N)[C@H]1O", "note": "[amikacin, Amikacin sulfate]", "values": [
      {"measurement": "MIC", "setting": "[1]", "result": "~0.13", "unit": "µg/mL"},
      {"measurement": "IC50", "setting": "[1]; run over the course of a five month period", "result": "0.09 ± 0.02", "unit": "µg/mL"}
    ]},
    {"smiles": "O=C1C(O)=C([C@H]2CC[C@H](c3ccc(Cl)cc3)CC2)C(=O)c2ccccc21", "note": "[Atovaquone]", "values": [
      {"measurement": "activity against M. tuberculosis (in words)", "setting": "[2]; Prestwick Library data", "result": "modest activity"}
    ]},
    {"smiles": "CCc1cc(C(N)=S)ccn1", "note": "[ethionamide, 2-ethylthioisonicotinamide]", "values": [
      {"measurement": "TB IC90", "setting": "[2]; in the TAACF screens", "result": "> 100", "unit": "µg/mL"}
    ]},
    {"smiles": "Cc1cccc(Nc2nc(-c3ccccc3)cs2)n1", "note": "[deaza analog of 1a, 4-phenyl-[2-(6-methyl-2-pyridyl)amino]thiazole]", "values": [
      {"measurement": "% Inhibition, single-dose screen", "setting": "[3]", "result": 22, "unit": "%"}
    ]},
    {"smiles": "CC[C@@H](CO)NCCN[C@@H](CC)CO", "note": "[ethambutol]", "values": [
      {"measurement": "MIC", "setting": "[1]", "result": "~0.5", "unit": "µg/mL"}
    ]}
  ]
}
